# Source: paper PMC5218480 (PLoS ONE, 2017)
# Test system: MV-4-11 cells
# Assay: Gene expression microarray analysis (Affymetrix PrimeView) and GSEA
# Assay type: cell-based, human
# Settings: MV-4-11, 48 hours, 1 μM each
compound,measurement,value
Nc1ncn([C@@H]2O[C@H](CO)[C@@H](O)[C@H]2O)c(=O)n1 [azacitidine],genes up-regulated greater than 2-fold relative to vehicle control,62 genes
